This note sets out measurements from ChEMBL document CHEMBL1687862, “Prenylated flavanones with anti-tyrosinase activity from Dalea boliviana” (J Nat Prod, 2011).

By inhibition is commonly meant the drop in the measured response relative to a control, in per cent. A higher inhibition goes with a strong effect. As a reminder, the IC50 is the concentration needed to halve the response being measured. A lower IC50 goes with higher potency.

The structures appear in SMILES notation.

In assay [1] the target is T1, Tyrosinase (Agaricus bisporus) (UniProt O42713).
T1 sequence (whole entry): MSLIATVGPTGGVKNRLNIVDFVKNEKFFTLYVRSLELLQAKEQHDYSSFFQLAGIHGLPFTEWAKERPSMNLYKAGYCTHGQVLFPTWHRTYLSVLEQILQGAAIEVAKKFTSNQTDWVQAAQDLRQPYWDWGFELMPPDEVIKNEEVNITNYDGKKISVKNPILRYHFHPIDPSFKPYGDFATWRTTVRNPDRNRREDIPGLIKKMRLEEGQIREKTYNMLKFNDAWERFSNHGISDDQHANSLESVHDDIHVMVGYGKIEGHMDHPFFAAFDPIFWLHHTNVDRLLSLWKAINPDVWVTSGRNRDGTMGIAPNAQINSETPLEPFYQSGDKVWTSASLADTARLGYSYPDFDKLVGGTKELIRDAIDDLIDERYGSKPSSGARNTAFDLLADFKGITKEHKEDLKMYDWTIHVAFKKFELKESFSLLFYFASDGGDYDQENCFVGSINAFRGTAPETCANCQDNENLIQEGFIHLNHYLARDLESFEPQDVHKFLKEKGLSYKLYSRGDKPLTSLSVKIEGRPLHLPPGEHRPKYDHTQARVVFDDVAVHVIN
Kind of assay: Inhibition of mushroom tyrosinase at 100 uM preincubated for 10 mins before addition of 1.7 mM L-tyrosine measured after 20 mins by spectrophotometric method.

For the next assay, the target named is T2, Tyrosinase (Agaricus bisporus, UniProt O42713).
T2 sequence (O42713 whole entry): T1 sequence (whole entry)
Kind of assay: (§1) Inhibition of mushroom tyrosinase preincubated for 10 mins before addition of 1.7 mM L-tyrosine measured after 20 mins by spectrophotometric method.

For assay [2], the target named is T1, Tyrosinase (Agaricus bisporus). Described as §1.

In assay [1], `COc1ccc([C@@H]2CC(=O)c3c(O)cc(O)cc3O2)cc1O` registered an inhibition of 0%.
On the same count and under the same terms, next, `CC1(C)C=Cc2c(cc(O)c3c2O[C@H](c2ccccc2)CC3=O)O1`: 16.2%; `O=C1C[C@@H](c2ccc(O)cc2)Oc2cc(O)cc(O)c21`: 2.8%.
On to `CC(C)=CCc1cccc([C@@H]2CC(=O)c3c(O)cc(O)c(CC=C(C)C)c3O2)c1O`, for which the midpoint of inhibition on Tyrosinase, the IC50, lay at 68.5 µM. This molecule yielded an inhibition in assay [1] of 87.8%.
The molecule `C=CC(C)(C)c1ccc(O)c([C@@H]2CC(=O)c3c(O)cc(O)c(CC=C(C)C)c3O2)c1` had an IC5 in assay [2] of 27.5 µM. Moreover, the inhibition in assay [1] came to 82.1%.
The molecule `CC(C)=CCc1cccc([C@@H]2CC(=O)c3c(O)cc4c(c3O2)C=CC(C)(C)O4)c1O` had an inhibition in assay [1] of 6.4%.
